The target of data set [1] is T1, thromboxane synthetase (Oryctolagus cuniculus, UniProt G1TAZ9).
T1 construct: from tissue; host or cells: rabbit platelets (microsomes)
T1 sequence (G1TAZ9 1-530): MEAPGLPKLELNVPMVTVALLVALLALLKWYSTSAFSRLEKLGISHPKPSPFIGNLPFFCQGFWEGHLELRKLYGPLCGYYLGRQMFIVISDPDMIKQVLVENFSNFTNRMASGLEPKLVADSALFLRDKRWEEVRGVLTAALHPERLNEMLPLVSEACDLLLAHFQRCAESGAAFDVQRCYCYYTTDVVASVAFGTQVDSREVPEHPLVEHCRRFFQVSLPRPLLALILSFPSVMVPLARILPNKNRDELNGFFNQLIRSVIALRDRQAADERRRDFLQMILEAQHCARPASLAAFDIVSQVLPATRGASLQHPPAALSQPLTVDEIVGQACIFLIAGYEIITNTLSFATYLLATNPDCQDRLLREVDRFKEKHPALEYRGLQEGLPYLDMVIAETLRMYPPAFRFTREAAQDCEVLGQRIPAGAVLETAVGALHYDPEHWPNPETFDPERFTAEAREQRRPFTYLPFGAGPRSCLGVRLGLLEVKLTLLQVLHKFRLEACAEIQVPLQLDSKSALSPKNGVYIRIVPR
Description: Inhibitory potency of imidazole compounds on thromboxane synthetase (conversion of prostaglandin H2 to thromboxane B2 by rabbit platelet microsomes). Type of data set: biochemical. The conditions noted are these: 24° C., 1 minute. As for the experimental part: (1-C^14)-Prostaglandin H2, obtained by the enzymatic biosynthesis with ram seminal vesicle microsomes and (1-C^14)-arachidonic acid, was incubated with rabbit platelet microsomes containing 0.025 μM and 0.5 μM of the test compound at 24° C. for 1 minute. The termination of the reaction and the extraction of a radioactive materials were carried out by the addition of a mixture of ethyl acetate/methanol/0.2 M citric acid (30:4:1 by volume). […] A spot of thromboxane B2 was counted by a packard Radiochromatogram Scanner.

Data set [2] has as its system thromboxane synthetase. The conditions noted are these: in words; reported in the literature; cited from earlier work.
Data set [3] in a line: Acute toxicity (LD50), intravenous, mice. The following applies: mouse, in vivo, dd-stain male mice, 7 weeks old, Behrens-Karber method, read-out: median lethal dose (LD50). As for the experimental part:
The median lethal dose (LD50) of N-(7-carboxyheptyl)imidazole and N-(6-methoxycarbonylhexyl)imidazole (known compound) were determined in dd-stain male mice (7 weeks old) by intravenous administration. The LD50 values were calculated according to the Behrens-Karber method.

Data set [4] deals with thromboxane synthetase. Kind of data set: Inhibitory effect on thromboxane synthetase, general statements. In kind it is biochemical. The conditions noted are these: in words.

Structures can show the parent of a compound that is named as a salt.

On to `O=C(O)CCCCCCCCCCCn1ccnc1` [N-(11-carboxyundecyl)imidazole hydrochloride], for which, in data set [1], the inhibition at 0.025 µM is 13.8% and 0.5 µM produced 46.8% inhibition.
Consider `c1c[nH]cn1` [imidazole], for which, in data set [2], the “inhibitory action for thromboxane synthetase” value was “weak”.
Regarding `O=C(O)CCCCCCCCCCn1ccnc1` [N-(10-carboxydecyl)imidazole hydrochloride], in data set [1], the inhibition at 0.025 µM came out at 9.2% and 0.5 µM produced 40.4% inhibition.
The like results for `O=C(O)CCCCCCn1ccnc1` [N-(6-carboxyhexyl)imidazole hydrochloride] were, in that order, 10.1% and 76.1%.
Turning to `O=C(O)CCCCCCCn1ccnc1` [N-(7-carboxyheptyl)imidazole, 1-(7-Carboxyheptyl)imidazole], in data set [3], the LD50 is 560 mg/kg.
Turning to `O=C(O)CCCCCCCn1ccnc1` [1-(7-Carboxyheptyl)imidazole Hydrochloride], in data set [1], at 0.025 µM the inhibition was 31.2% and the inhibition at 0.5 µM was determined as 89%.
In data set [1], `COC(=O)CCCCCCn1ccnc1` [N-(6-methoxycarbonylhexyl)imidazole, reference compound] showed an inhibition at 0.025 µM of 5.5% and an inhibition at 0.5 µM of 25.7%. Besides, the LD50 in data set [3] came out at 140 mg/kg. Also, in data set [4], the “inhibitory effect on thromboxane synthetase compared with imidazole or 1-methylimidazole” value is given as “stronger inhibitory effect” and the “inhibitory effect on thromboxane synthetase, suitability as medication” value was “not completely satisfactory as a practical medication”.
Consider `O=C(O)CCCCCCCCCn1ccnc1` [N-(9-carboxynonyl)imidazole hydrochloride], for which, in data set [1], the inhibition at 0.025 µM came to 20.2% and 0.5 µM produced 72.5% inhibition.
In the case of `Cn1ccnc1` [1-methylimidazole], the “inhibitory action for thromboxane synthetase” value in data set [2] is given as “weak”.
Take `O=C(O)CCCCCCCCn1ccnc1` [N-(8-carboxyoctyl)imidazole hydrochloride]: in data set [1], testing at 0.025 µM gave an inhibition of 42.2% and the inhibition at 0.5 µM turned out to be 90.8%.

The values are drawn from patent publication US4320134A, “Inhibiton of thromboxane synthetase with 1-substituted imidazole compounds” (Ono Pharmaceutical Co., Ltd., priority 1978, dated 1982).
